Assay results taken from the kinase profiling compilation of Christmann-Franck et al. (2016).

How the values were obtained:
Assay in all cases: KINOMEscan competition binding
Conditions in all cases: compound 10.0 µM
[1] = biological target: MAP3K12 (human) (UniProt Q12852)
[2] = biological target: MYO3B (human) (UniProt Q8WXR4)
[3] = biological target: BRAF (human) (UniProt P15056)
[4] = biological target: CSNK2A1 (human) (UniProt P68400)
[5] = biological target: STK35 (human) (UniProt Q8TDR2)
[6] = biological target: CDK14 (human) (UniProt O94921)
[7] = biological target: PIK3CG (human) (UniProt P48736)
[8] = biological target: KDR (human) (UniProt P35968)
[9] = biological target: NTRK2 (human) (UniProt Q16620)
[10] = biological target: MAP4K3 (human) (UniProt Q8IVH8)
[11] = biological target: PAK2 (human) (UniProt Q13177)
[12] = biological target: KIT (human) (UniProt P10721)
[13] = biological target: NEK1 (human) (UniProt Q96PY6)
[14] = biological target: BMX (human) (UniProt P51813)
[15] = biological target: SRMS (human) (UniProt Q9H3Y6)
[16] = test system: KIT (human), P10721 [V559D]
[17] = biological target: CDC2L2 (human) (UniProt Q9UQ88)
[18] = biological target: LCK (human) (UniProt P06239)
[19] = biological target: SIK2 (human) (UniProt Q9H0K1)
[20] = biological target: ITK (human) (UniProt Q08881)
[21] = biological target: PRKX (human) (UniProt P51817)
[22] = biological target: SRPK3 (human) (UniProt Q9UPE1)
[23] = biological target: RPS6KA6 KD1 (human) (UniProt Q9UK32)
[24] = biological target: SLK (human) (UniProt Q9H2G2)
[25] = biological target: AXL (human) (UniProt P30530)
[26] = biological target: FER (human) (UniProt P16591)
[27] = biological target: DAPK1 (human) (UniProt P53355)
[28] = biological target: DMPK (human) (UniProt Q09013)
[29] = biological target: MAP3K2 (human) (UniProt Q9Y2U5)
[30] = biological target: MAP4K1 (human) (UniProt Q92918)
[31] = biological target: EPHA4 (human) (UniProt P54764)
[32] = biological target: GRK4 (human) (UniProt P32298)
[33] = biological target: MST1R (human) (UniProt Q04912)
[34] = biological target: IKBKB (human) (UniProt O14920)
[35] = biological target: CDK5 (human) (UniProt Q00535)
[36] = biological target: HIPK3 (human) (UniProt Q9H422)
[37] = biological target: MYLK2 (human) (UniProt Q9H1R3)
[38] = biological target: PRKCE (human) (UniProt Q02156)
[39] = biological target: MAPK4 (human) (UniProt P31152)
[40] = biological target: LATS2 (human) (UniProt Q9NRM7)
[41] = biological target: MAPK3 (human) (UniProt P27361)
[42] = test system: FLT3 (human), P36888 [N841I]

FER (human), sequence (P16591 whole entry, looked up): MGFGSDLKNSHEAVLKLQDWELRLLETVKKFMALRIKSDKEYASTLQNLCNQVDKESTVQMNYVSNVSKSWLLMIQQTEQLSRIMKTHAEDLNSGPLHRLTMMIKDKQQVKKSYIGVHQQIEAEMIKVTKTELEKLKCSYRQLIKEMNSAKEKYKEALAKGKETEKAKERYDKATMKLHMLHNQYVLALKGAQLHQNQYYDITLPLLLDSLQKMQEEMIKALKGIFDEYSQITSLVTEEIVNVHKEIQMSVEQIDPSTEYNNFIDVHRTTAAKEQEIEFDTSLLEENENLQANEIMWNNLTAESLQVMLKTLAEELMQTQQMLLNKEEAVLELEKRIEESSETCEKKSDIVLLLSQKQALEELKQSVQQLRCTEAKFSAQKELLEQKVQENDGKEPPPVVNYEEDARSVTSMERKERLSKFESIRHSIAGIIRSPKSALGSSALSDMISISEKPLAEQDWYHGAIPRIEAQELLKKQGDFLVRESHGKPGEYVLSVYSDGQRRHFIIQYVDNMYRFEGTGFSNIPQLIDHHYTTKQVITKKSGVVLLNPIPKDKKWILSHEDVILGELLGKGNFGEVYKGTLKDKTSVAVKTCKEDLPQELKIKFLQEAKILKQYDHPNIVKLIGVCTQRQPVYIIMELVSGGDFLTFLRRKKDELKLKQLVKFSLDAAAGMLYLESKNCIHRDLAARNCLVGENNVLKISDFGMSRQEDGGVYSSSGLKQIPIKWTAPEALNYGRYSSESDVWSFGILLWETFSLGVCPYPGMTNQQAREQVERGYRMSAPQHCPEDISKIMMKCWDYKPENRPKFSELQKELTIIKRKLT
SLK (human), sequence (Q9H2G2 whole entry, looked up): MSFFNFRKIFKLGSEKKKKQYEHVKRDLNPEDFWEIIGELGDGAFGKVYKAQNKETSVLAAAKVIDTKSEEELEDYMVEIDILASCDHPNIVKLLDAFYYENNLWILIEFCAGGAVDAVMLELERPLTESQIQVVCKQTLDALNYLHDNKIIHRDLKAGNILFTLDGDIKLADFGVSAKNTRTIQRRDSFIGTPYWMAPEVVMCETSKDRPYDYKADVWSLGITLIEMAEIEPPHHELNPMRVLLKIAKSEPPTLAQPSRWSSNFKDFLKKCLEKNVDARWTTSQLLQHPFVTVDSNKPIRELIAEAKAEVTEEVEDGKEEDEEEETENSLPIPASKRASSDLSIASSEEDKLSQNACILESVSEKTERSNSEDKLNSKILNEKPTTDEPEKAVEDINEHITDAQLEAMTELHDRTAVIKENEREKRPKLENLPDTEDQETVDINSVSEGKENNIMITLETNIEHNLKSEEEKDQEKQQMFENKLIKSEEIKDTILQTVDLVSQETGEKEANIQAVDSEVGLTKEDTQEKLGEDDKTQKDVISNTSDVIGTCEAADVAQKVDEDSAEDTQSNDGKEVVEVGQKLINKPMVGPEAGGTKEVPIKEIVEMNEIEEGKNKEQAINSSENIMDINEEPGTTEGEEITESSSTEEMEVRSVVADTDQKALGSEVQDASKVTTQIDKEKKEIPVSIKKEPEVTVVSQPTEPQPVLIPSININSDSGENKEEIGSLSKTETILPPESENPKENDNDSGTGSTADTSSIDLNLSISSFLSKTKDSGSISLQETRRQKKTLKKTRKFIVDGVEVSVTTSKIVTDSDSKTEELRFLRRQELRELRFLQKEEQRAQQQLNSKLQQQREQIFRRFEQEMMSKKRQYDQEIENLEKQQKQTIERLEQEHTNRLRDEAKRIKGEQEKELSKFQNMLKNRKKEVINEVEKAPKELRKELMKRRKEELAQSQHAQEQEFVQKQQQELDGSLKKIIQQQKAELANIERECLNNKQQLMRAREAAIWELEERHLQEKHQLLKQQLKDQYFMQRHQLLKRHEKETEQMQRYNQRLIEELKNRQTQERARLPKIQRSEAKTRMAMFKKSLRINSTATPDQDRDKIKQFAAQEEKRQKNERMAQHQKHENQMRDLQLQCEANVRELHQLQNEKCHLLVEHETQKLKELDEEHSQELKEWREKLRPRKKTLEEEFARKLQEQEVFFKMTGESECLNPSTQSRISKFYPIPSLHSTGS
LATS2 (human), sequence (Q9NRM7 whole entry, looked up): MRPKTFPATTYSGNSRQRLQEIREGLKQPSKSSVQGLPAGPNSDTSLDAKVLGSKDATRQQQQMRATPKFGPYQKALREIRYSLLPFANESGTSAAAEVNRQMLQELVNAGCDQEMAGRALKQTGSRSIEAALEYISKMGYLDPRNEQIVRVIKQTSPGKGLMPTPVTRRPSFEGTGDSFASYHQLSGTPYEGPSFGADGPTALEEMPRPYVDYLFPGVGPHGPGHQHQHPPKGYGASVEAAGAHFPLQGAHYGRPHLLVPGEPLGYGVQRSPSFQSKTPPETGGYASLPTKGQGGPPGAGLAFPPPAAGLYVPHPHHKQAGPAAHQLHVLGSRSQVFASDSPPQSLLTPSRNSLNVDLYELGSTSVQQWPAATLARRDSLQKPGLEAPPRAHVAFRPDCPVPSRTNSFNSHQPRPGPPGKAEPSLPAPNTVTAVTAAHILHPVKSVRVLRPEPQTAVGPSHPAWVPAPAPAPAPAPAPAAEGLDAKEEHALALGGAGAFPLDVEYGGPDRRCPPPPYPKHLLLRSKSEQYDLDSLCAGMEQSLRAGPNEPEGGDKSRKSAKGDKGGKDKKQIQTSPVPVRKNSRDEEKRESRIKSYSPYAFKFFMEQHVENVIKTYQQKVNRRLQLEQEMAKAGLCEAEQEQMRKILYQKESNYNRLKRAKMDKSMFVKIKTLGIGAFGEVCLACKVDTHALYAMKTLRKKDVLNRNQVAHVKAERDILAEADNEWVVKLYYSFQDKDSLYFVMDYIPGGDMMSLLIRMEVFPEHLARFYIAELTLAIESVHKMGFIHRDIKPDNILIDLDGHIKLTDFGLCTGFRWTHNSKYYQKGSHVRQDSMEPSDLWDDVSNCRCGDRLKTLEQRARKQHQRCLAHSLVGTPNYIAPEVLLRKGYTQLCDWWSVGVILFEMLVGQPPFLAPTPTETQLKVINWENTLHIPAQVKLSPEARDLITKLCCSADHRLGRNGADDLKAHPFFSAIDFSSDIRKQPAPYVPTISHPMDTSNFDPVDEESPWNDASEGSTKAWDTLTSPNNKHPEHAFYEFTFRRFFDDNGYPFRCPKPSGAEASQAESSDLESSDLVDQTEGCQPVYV
KIT (human), P10721 [V559D], sequence (P10721 whole entry V559D, looked up): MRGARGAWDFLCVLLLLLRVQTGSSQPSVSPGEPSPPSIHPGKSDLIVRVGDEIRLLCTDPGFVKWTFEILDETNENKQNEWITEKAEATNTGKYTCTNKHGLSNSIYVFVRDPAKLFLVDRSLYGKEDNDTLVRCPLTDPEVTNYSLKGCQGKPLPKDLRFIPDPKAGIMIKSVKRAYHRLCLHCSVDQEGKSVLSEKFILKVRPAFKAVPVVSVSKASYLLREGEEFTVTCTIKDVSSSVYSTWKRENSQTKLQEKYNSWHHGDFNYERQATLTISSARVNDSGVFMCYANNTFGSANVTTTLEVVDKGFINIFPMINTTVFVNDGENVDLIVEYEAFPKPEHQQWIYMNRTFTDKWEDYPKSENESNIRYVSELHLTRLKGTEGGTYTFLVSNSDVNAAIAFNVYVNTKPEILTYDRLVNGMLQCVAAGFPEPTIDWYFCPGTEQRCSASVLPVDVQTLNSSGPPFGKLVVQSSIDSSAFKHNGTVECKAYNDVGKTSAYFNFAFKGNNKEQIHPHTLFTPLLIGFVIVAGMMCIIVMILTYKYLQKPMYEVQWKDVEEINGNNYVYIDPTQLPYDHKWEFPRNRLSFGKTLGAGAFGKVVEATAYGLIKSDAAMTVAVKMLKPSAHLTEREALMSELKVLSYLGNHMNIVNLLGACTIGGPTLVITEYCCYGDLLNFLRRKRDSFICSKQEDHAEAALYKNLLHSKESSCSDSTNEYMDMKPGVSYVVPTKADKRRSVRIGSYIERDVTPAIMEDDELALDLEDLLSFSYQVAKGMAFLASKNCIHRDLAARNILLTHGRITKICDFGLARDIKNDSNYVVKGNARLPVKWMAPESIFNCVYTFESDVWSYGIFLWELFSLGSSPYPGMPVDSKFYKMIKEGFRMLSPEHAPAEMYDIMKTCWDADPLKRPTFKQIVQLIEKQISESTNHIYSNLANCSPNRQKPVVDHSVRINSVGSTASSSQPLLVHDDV
STK35 (human), sequence (Q8TDR2 whole entry, looked up): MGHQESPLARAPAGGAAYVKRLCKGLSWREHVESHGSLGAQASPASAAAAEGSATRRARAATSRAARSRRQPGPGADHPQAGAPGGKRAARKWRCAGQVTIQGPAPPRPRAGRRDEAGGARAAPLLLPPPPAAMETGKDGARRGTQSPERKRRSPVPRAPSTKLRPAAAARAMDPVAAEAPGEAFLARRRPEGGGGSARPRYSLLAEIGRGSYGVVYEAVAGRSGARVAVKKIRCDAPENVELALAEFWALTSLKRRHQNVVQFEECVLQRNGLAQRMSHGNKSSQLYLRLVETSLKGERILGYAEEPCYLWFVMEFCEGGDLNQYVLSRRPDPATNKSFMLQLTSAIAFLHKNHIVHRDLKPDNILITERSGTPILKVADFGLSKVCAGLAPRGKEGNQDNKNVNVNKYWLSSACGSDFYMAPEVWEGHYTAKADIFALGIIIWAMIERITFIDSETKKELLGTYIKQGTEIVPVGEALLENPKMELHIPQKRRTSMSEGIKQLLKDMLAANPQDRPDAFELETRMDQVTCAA
CSNK2A1 (human), sequence (P68400 whole entry, looked up): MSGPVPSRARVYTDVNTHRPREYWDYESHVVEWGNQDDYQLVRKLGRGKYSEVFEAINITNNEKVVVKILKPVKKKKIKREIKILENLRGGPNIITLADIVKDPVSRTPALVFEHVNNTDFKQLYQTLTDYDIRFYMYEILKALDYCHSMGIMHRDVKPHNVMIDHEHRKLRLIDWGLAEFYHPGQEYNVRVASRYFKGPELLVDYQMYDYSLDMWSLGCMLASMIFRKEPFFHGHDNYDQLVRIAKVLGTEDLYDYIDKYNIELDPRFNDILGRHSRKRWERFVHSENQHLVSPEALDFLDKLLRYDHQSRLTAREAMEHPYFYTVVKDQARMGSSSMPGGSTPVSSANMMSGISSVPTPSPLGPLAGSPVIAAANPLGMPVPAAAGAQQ
KIT (human), sequence (P10721 whole entry, looked up): as the sequence (P10721 whole entry V559D, looked up) above, with D559V counted along it

SMILES: COc1ccc(CNC(=O)Nc2ncc([N+](=O)[O-])s2)cc1
- kinase still bound, per cent of control [1]: 80%
- kinase still bound, per cent of control [2]: 100%
- kinase still bound, per cent of control [3]: 57%
- kinase still bound, per cent of control [4]: 100%
- kinase still bound, per cent of control [5]: 87%
- kinase still bound, per cent of control [6]: 95%
- kinase still bound, per cent of control [7]: 100%
- kinase still bound, per cent of control [8]: 67%
- kinase still bound, per cent of control [9]: 81%
- kinase still bound, per cent of control [10]: 90%
- kinase still bound, per cent of control [11]: 87%
- kinase still bound, per cent of control [12]: 100%
- kinase still bound, per cent of control [13]: 100%
- kinase still bound, per cent of control [14]: 100%
- kinase still bound, per cent of control [15]: 75%
- kinase still bound, per cent of control [16]: 3.6%
- kinase still bound, per cent of control [17]: 100%
- kinase still bound, per cent of control [18]: 100%
- kinase still bound, per cent of control [19]: 80%
- kinase still bound, per cent of control [20]: 95%
- kinase still bound, per cent of control [21]: 42%
- kinase still bound, per cent of control [22]: 100%
- kinase still bound, per cent of control [23]: 100%
- kinase still bound, per cent of control [24]: 100%
- kinase still bound, per cent of control [25]: 100%
- kinase still bound, per cent of control [26]: 100%
- kinase still bound, per cent of control [27]: 99%
- kinase still bound, per cent of control [28]: 100%
- kinase still bound, per cent of control [29]: 96%
- kinase still bound, per cent of control [30]: 98%
- kinase still bound, per cent of control [31]: 100%
- kinase still bound, per cent of control [32]: 100%
- kinase still bound, per cent of control [33]: 100%
- kinase still bound, per cent of control [34]: 100%
- kinase still bound, per cent of control [35]: 72%
- kinase still bound, per cent of control [36]: 100%
- kinase still bound, per cent of control [37]: 93%
- kinase still bound, per cent of control [38]: 100%
- kinase still bound, per cent of control [39]: 100%
- kinase still bound, per cent of control [40]: 100%
- kinase still bound, per cent of control [41]: 100%
- kinase still bound, per cent of control [42]: 89%

SMILES: O=C1Nc2cc(Br)ccc2/C1=C1/Nc2ccccc2/C1=N\O
- kinase still bound, per cent of control [1]: 19%
- kinase still bound, per cent of control [2]: 100%
- kinase still bound, per cent of control [3]: 89%
- kinase still bound, per cent of control [4]: 6.2%
- kinase still bound, per cent of control [5]: 60%
- kinase still bound, per cent of control [6]: 18%
- kinase still bound, per cent of control [7]: 82%
- kinase still bound, per cent of control [8]: 0.9%
- kinase still bound, per cent of control [9]: 7.2%
- kinase still bound, per cent of control [10]: 24%
- kinase still bound, per cent of control [11]: 40%
- kinase still bound, per cent of control [12]: 0.05%
- kinase still bound, per cent of control [13]: 70%
- kinase still bound, per cent of control [14]: 42%
- kinase still bound, per cent of control [15]: 13%
- kinase still bound, per cent of control [16]: 0%
- kinase still bound, per cent of control [17]: 100%
- kinase still bound, per cent of control [18]: 4.8%
- kinase still bound, per cent of control [19]: 8.2%
- kinase still bound, per cent of control [20]: 11%
- kinase still bound, per cent of control [21]: 100%
- kinase still bound, per cent of control [22]: 0.25%
- kinase still bound, per cent of control [23]: 51%
- kinase still bound, per cent of control [24]: 44%
- kinase still bound, per cent of control [25]: 0.25%
- kinase still bound, per cent of control [26]: 100%
- kinase still bound, per cent of control [27]: 3.6%
- kinase still bound, per cent of control [28]: 100%
- kinase still bound, per cent of control [29]: 56%
- kinase still bound, per cent of control [30]: 18%
- kinase still bound, per cent of control [31]: 55%
- kinase still bound, per cent of control [32]: 1.8%
- kinase still bound, per cent of control [33]: 100%
- kinase still bound, per cent of control [34]: 78%
- kinase still bound, per cent of control [35]: 9.5%
- kinase still bound, per cent of control [36]: 12%
- kinase still bound, per cent of control [37]: 3%
- kinase still bound, per cent of control [38]: 90%
- kinase still bound, per cent of control [39]: 100%
- kinase still bound, per cent of control [40]: 60%
- kinase still bound, per cent of control [41]: 100%
- kinase still bound, per cent of control [42]: 0%
